From US7439356B2, “Substituted indan derivatives” (AstraZeneca AB, priority 1997, dated 2008)

`CN1CCN(c2cccc3c2CC(C(=O)Nc2ccc(N4CCOCC4)cc2)C3)CC1` (stereo not shown) [Example 4, 4-(4-Methylpiperazin-1-yl)-N-(4-morpholinophenyl)indan-2-carboxamide] gave a melting point of 248 to 249 °C.
